Experimental data as given in ChEMBL document CHEMBL1156502, “Stabilized immune modulatory RNA compounds as agonists of Toll-like receptors 7 and 8” (Proc Natl Acad Sci U S A, 2007).
The source made the active and inactive calls. No cut-off for these calls is given here.

Assays:
[1] = tested on: Cynomolgus monkey; assay: Induction of immune response in cynomolgus monkey assessed as increase in number of peripheral blood neutrophils at 5 mg/kg, sc within 24 hrs; format: functional, organism-based; design: dose 5 mg/kg; details: Macaca fascicularis
[2] = tested on: Cynomolgus monkey; assay: Induction of immune response in cynomolgus monkey assessed as increase in number of peripheral blood monocytes at 5 mg/kg, sc within 24 hrs; format: functional, organism-based; design: dose 5 mg/kg; details: Macaca fascicularis
[3] = tested on: PBMC; assay: Induction of IL2R secretion in human PBMC after 24 hrs by Luminex Multiplex assay; format: functional, cell-based
[4] = tested on: PBMC; assay: Induction of IL12 secretion in human PBMC after 24 hrs by Luminex Multiplex assay; format: functional, cell-based
[5] = tested on: Cynomolgus monkey; assay: Increase in CD69 expression on CD3+ lymphocytes in cynomolgus monkey at 5 mg/kg, sc after 24 hrs by flow cytometry relative to control; format: functional, organism-based; design: dose 5 mg/kg; details: Macaca fascicularis
[6] = target: T1, Toll-like receptor 7 (Homo sapiens) (UniProt Q9NYK1); assay: Activation of human TLR7 expressed in HEK293 cells assessed as increase in NF-kappaB activation at 100 ug/ml by SEAP assay; format: cell-based
T1 sequence (whole entry): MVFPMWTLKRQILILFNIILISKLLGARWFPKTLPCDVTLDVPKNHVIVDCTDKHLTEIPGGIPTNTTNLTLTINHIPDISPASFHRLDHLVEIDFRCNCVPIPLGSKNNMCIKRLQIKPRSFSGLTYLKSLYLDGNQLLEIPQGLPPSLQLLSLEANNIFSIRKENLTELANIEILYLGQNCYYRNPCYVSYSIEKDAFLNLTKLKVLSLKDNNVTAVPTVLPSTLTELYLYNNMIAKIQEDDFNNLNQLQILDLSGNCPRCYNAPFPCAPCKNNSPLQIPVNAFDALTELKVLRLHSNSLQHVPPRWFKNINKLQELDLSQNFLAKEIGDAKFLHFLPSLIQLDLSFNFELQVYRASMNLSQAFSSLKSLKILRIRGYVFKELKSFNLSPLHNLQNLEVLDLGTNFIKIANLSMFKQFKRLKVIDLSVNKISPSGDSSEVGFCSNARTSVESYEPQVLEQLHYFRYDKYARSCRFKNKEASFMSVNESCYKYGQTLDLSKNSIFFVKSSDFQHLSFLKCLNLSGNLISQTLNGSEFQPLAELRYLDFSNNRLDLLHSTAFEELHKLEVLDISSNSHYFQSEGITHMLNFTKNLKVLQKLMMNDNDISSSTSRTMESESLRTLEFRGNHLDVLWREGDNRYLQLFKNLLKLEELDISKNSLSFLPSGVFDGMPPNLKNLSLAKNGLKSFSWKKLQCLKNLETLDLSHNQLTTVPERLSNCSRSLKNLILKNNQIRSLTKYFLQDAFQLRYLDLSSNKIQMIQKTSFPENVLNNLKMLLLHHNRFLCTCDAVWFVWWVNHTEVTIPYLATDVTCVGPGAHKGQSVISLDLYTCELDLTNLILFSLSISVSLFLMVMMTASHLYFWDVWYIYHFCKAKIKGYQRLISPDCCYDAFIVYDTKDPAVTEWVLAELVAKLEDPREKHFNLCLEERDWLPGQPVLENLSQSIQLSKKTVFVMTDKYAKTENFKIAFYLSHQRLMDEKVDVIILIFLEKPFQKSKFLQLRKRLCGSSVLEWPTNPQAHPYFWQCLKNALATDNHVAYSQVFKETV

[7] = target: T2, Toll-like receptor 8 (Homo sapiens) (UniProt Q9NR97); assay: Activation of human TLR8 expressed in HEK293 cells assessed as increase in NF-kappaB activation at 100 ug/ml by SEAP assay; format: cell-based
T2 sequence (whole entry): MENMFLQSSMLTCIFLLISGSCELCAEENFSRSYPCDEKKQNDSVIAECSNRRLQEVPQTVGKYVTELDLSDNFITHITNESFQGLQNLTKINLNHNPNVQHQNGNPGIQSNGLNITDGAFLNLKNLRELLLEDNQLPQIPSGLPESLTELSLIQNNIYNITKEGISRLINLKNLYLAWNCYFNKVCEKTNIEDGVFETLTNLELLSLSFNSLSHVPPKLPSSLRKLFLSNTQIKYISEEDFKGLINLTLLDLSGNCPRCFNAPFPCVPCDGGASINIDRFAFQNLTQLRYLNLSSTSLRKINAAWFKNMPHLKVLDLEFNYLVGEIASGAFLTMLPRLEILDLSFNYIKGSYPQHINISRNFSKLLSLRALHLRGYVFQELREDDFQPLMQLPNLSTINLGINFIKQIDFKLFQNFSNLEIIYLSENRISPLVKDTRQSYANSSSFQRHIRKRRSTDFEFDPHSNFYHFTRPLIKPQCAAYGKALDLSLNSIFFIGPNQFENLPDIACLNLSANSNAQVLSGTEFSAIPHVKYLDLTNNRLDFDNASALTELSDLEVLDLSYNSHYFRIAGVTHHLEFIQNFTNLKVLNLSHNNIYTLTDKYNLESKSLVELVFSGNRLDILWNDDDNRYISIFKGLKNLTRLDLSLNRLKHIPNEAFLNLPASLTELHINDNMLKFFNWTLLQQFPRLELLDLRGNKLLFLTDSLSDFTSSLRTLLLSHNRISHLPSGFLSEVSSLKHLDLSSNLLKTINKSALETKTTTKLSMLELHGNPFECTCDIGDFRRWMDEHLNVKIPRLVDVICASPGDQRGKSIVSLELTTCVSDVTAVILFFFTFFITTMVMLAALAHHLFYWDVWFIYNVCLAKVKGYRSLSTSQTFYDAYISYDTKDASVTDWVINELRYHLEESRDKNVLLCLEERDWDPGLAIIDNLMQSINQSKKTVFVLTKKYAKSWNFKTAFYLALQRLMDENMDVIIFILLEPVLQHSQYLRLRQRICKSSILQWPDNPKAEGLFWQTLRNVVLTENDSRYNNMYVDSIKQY

[8] = tested on: PBMC; assay: Induction of IL1-beta secretion in human PBMC after 24 hrs by Luminex Multiplex assay; format: functional, cell-based
[9] = tested on: Cynomolgus monkey; assay: Increase in CD69 expression on CD16+ NK cells in cynomolgus monkey at 5 mg/kg, sc after 24 hrs by flow cytometry relative to control; format: functional, organism-based; design: dose 5 mg/kg; details: Macaca fascicularis
[10] = tested on: Cynomolgus monkey; assay: Elevation of IFNalpha in cynomolgus monkey plasma at 5 mg/kg, sc after 24 hrs; format: functional, organism-based; design: dose 5 mg/kg; details: Macaca fascicularis
[11] = tested on: Cynomolgus monkey; assay: Increase in CD69 expression on CD14+ monocytes in cynomolgus monkey at 5 mg/kg, sc after 24 hrs by flow cytometry relative to control; format: functional, organism-based; design: dose 5 mg/kg; details: Macaca fascicularis
[12] = tested on: PBMC; assay: Induction of IFN-gamma secretion in human PBMC after 24 hrs by Luminex Multiplex assay; format: functional, cell-based
[13] = tested on: PBMC; assay: Induction of IFNalpha secretion in human PBMC after 24 hrs by Luminex Multiplex assay; format: functional, cell-based
[14] = tested on: PBMC; assay: Induction of IL10 secretion in human PBMC after 24 hrs by Luminex Multiplex assay; format: functional, cell-based
[15] = tested on: Cynomolgus monkey; assay: Elevation of IP10 in cynomolgus monkey plasma at 5 mg/kg, sc after 24 hrs; format: functional, organism-based; design: dose 5 mg/kg; details: Macaca fascicularis
[16] = Stability in 1% human serum assessed as full length product after 10 mins; format: ADME, cell-free; details: read-out: Stability
[17] = tested on: Mus musculus; assay: Induction of IL12 secretion in sc dosed C57BL/6 mouse serum after 2 hrs by ELISA; format: functional, organism-based
[18] = tested on: Mus musculus; assay: Induction of chemokine secretion in C57BL/6 mouse plasma at 100 mg/kg, sc by Luminex Multiplex assay; format: functional, organism-based; design: dose 100 mg/kg
[19] = tested on: Mus musculus; assay: Induction of cytokine secretion in C57BL/6 mouse plasma at 100 mg/kg, sc by Luminex Multiplex assay; format: functional, organism-based; design: dose 100 mg/kg

Nc1ccn([C@@H]2O[C@H](COP(O)(=S)O[C@H]3[C@@H](O)[C@H](n4cnc5c(=O)[nH]c(N)nc54)O[C@@H]3COP(O)(=S)O[C@H]3[C@@H](O)[C@H](n4ccc(=O)[nH]c4=O)O[C@@H]3COCCCO)[C@@H](OP(O)(=S)OC[C@H]3O[C@@H](n4ccc(=O)[nH]c4=O)[C@H](O)[C@@H]3OP(O)(=S)OC[C@H]3O[C@@H](n4cnc5c(=O)[nH]c(N)nc54)[C@H](O)[C@@H]3OP(O)(=S)OC[C@H]3O[C@@H](n4ccc(N)nc4=O)[C@H](O)[C@@H]3OP(O)(=S)OC[C@H]3O[C@@H](n4ccc(=O)[nH]c4=O)[C@H](O)[C@@H]3OP(O)(=S)OC[C@H]3O[C@@H](n4ccc(=O)[nH]c4=O)[C@H](O)[C@@H]3OP(O)(=S)OC[C@H]3O[C@@H](n4cnc5c(=O)[nH]c(N)nc54)[C@H](O)[C@@H]3OP(O)(=S)OC[C@H]3O[C@@H](n4ccc(=O)[nH]c4=O)[C@H](O)[C@@H]3OP(O)(=S)OC[C@H]3O[C@@H](n4cnc5c(=O)[nH]c(N)nc54)[C@H](O)[C@@H]3OP(O)(=S)OCC(O)COP(O)(=S)O[C@H]3[C@@H](O)[C@H](n4cnc5c(=O)[nH]c(N)nc54)O[C@@H]3COP(O)(=S)O[C@H]3[C@@H](O)[C@H](n4ccc(=O)[nH]c4=O)O[C@@H]3COP(O)(=S)O[C@H]3[C@@H](O)[C@H](n4cnc5c(=O)[nH]c(N)nc54)O[C@@H]3COP(O)(=S)O[C@H]3[C@@H](O)[C@H](n4ccc(=O)[nH]c4=O)O[C@@H]3COP(O)(=S)O[C@H]3[C@@H](O)[C@H](n4ccc(=O)[nH]c4=O)O[C@@H]3COP(O)(=S)O[C@H]3[C@@H](O)[C@H](n4ccc(N)nc4=O)O[C@@H]3COP(O)(=S)O[C@H]3[C@@H](O)[C@H](n4cnc5c(=O)[nH]c(N)nc54)O[C@@H]3COP(O)(=S)O[C@H]3[C@@H](O)[C@H](n4ccc(=O)[nH]c4=O)O[C@@H]3COP(O)(=S)O[C@H]3[C@@H](O)[C@H](n4ccc(N)nc4=O)O[C@@H]3COP(O)(=S)O[C@H]3[C@@H](O)[C@H](n4cnc5c(=O)[nH]c(N)nc54)O[C@@H]3COP(O)(=S)O[C@H]3[C@@H](O)[C@H](n4ccc(=O)[nH]c4=O)O[C@@H]3COCCCO)[C@H]2O)c(=O)n1 (stereo partly drawn)
Activity [1]: Active
Activity [2]: Active
Activity [3]: Dose-dependent effect
Activity [4]: Dose-dependent effect
Activity [5]: Active
Activity [6]: inactive
Activity [7]: Active
Activity [8]: Dose-dependent effect
Activity [9]: Active
Activity [10]: Active
Activity [11]: Active
Activity [12]: Dose-dependent effect
Activity [13]: Dose-dependent effect
Activity [14]: Dose-dependent effect
Activity [15]: Active
remaining at 10 min [16]: 78%

Nc1ccn([C@@H]2O[C@H](COP(O)(=S)O[C@H]3[C@@H](O)[C@H](n4cnc5c(=O)[nH]c(N)nc54)O[C@@H]3COP(O)(=S)O[C@H]3[C@@H](O)[C@H](n4ccc(=O)[nH]c4=O)O[C@@H]3CO)[C@@H](OP(O)(=S)OC[C@H]3O[C@@H](n4ccc(=O)[nH]c4=O)[C@H](O)[C@@H]3OP(O)(=S)OC[C@H]3O[C@@H](n4cnc5c(=O)[nH]c(N)nc54)[C@H](O)[C@@H]3OP(O)(=S)OC[C@H]3O[C@@H](n4ccc(N)nc4=O)[C@H](O)[C@@H]3OP(O)(=S)OC[C@H]3O[C@@H](n4ccc(=O)[nH]c4=O)[C@H](O)[C@@H]3OP(O)(=S)OC[C@H]3O[C@@H](n4ccc(=O)[nH]c4=O)[C@H](O)[C@@H]3OP(O)(=S)OC[C@H]3O[C@@H](n4cnc5c(=O)[nH]c(N)nc54)[C@H](O)[C@@H]3OP(O)(=S)OC[C@H]3O[C@@H](n4ccc(=O)[nH]c4=O)[C@H](O)[C@@H]3OP(O)(=S)OC[C@H]3O[C@@H](n4cnc5c(=O)[nH]c(N)nc54)[C@H](O)[C@@H]3OP(O)(=S)OCC(O)COP(O)(=S)O[C@H]3[C@@H](O)[C@H](n4cnc5c(=O)[nH]c(N)nc54)O[C@@H]3COP(O)(=S)O[C@H]3[C@@H](O)[C@H](n4ccc(=O)[nH]c4=O)O[C@@H]3COP(O)(=S)O[C@H]3[C@@H](O)[C@H](n4cnc5c(=O)[nH]c(N)nc54)O[C@@H]3COP(O)(=S)O[C@H]3[C@@H](O)[C@H](n4ccc(=O)[nH]c4=O)O[C@@H]3COP(O)(=S)O[C@H]3[C@@H](O)[C@H](n4ccc(=O)[nH]c4=O)O[C@@H]3COP(O)(=S)O[C@H]3[C@@H](O)[C@H](n4ccc(N)nc4=O)O[C@@H]3COP(O)(=S)O[C@H]3[C@@H](O)[C@H](n4cnc5c(=O)[nH]c(N)nc54)O[C@@H]3COP(O)(=S)O[C@H]3[C@@H](O)[C@H](n4ccc(=O)[nH]c4=O)O[C@@H]3COP(O)(=S)O[C@H]3[C@@H](O)[C@H](n4ccc(N)nc4=O)O[C@@H]3COP(O)(=S)O[C@H]3[C@@H](O)[C@H](n4cnc5c(=O)[nH]c(N)nc54)O[C@@H]3COP(O)(=S)O[C@H]3[C@@H](O)[C@H](n4ccc(=O)[nH]c4=O)O[C@@H]3CO)[C@H]2O)c(=O)n1 (stereo partly drawn)
Activity [3]: Dose-dependent effect
Activity [17]: inactive
Activity [4]: Dose-dependent effect
Activity [6]: inactive
Activity [7]: Active
Activity [18]: inactive
Activity [19]: inactive
Activity [8]: Dose-dependent effect
Activity [12]: Dose-dependent effect
Activity [13]: Dose-dependent effect
Activity [14]: Dose-dependent effect
remaining at 10 min [16]: 74%
